Measurements published in patent US20210400967A1, “COMPOSITIONS COMPRISING PYRIDINE CARBOXYLATE HERBICIDES WITH GLYPHOSATE OR GLUFOSINATE” (Corteva Agriscience LLC, priority 2018, published 2021).

Legend:
Assay type in all cases: in vivo
[1] = tested on: Setaria faberi (giant foxtail); experiment: Greenhouse postemergence herbicidal effect, giant foxtail (SETFA); conditions: 20-22 d
From the text: (§1) Greenhouse Trial Methodology—Evaluation of Postemergence Herbicidal Effect
(§2) Seeds of the desired test plant species were planted in a 90:10% v/v (volume/volume) mixture of PRO-MIX® BX (Premier Tech Horticulture, Quakertown, Pa., USA) and PROFILE® GREENS GRADE™ (Profile Products LLC, Buffalo Grove, Ill., USA) planting mixture, which typically has a pH of 5.2 to 6.2 and an organic matter content of at least 50 percent, in plastic pots with a surface area of 103.2 square centimeters (cm^2). In some aspects, to ensure good germination and healthy plants, a fungicide treatment and/or other chemical or physical treatment was applied. The plants were grown for 7-36 days (d) in a greenhouse with an approximate 14-hour (h) photo-period which was maintained at about 23° C. during the day and 22° C. during the night. Nutrients and water were added on a regular basis and supplemental lighting was provided with overhead metal halide 1000-Watt lamps as necessary. The plants were employed for testing when they reached the second or third true leaf stage.
(§3) Emulsifiable concentrates of each of each pyridine carboxylate herbicide (Compound A or Compound B) were prepared at 100 grams acid equivalent per liter (g ae/L). The emulsifiable concentrates also included a safener, cloquintocet-mexyl, at 120 grams active ingredient per liter (g ai/L). An aliquot of each emulsifiable concentrate was placed in a 25 mL glass vial and diluted with an aqueous mixture of 1.25% (v/v) ACTIROB® B esterified rapeseed oil (Bayer Crop Science, Research Triangle Park, N.C., USA) or MSO® Concentrate with LECI-TECH® methylated soybean oil (Loveland Products, Loveland, Colo., USA) to obtain concentrated stock solutions at the highest application rate for each herbicide, based upon a 12 milliliter (mL) application volume at a rate of 187 liters per hectare (L/ha). The concentrated stock solutions were further diluted with an aqueous mixture of 1.25% v/v ACTIROB® B or MSO® Concentrate with LECI-TECH® to obtain stock solutions at reduced application rates for each herbicide. Spray solutions of the herbicide combinations (Compound A or Compound B plus glyphosate or glufosinate) were prepared by adding weighed amounts or aliquots of the glyphosate or glufosinate to the stock solutions of Compound A or Compound B to form 12-mL spray solutions in two-way combinations.
(§4) The spray solutions were applied to the plant material with an overhead Mandel track sprayer equipped with 8002E nozzles calibrated to deliver 187 L/ha over an application area of 0.503 square meters (m^2) at a spray height of 18 inches (43 centimeters (cm)) above the average plant canopy. Control plants were sprayed in the same manner with the solvent blank. All pyridine carboxylate herbicide (component a) application rates are given as “g ae/ha” and all glyphosate or glufosinate (component b) application rates are given as “g ai/ha.”
(§5) The treated plants and control plants were placed in a greenhouse as described above and watered by sub-irrigation to prevent wash-off of the test compounds. After 20-22 d, the condition of the test plants as compared with that of the control plants was determined visually and scored on a scale of 0 to 100 percent where 0 corresponds to no injury and 100 corresponds to complete kill.

[2] = tested on: Chenopodium album L. (common lambsquarters); experiment: Greenhouse postemergence herbicidal effect, common lambsquarters (CHEAL); conditions: 20-22 d
From the text: as §1, §2, §3, §4, §5

[3] = tested on: Polygonum convolvulus (wild buckwheat); experiment: Greenhouse postemergence herbicidal effect, wild buckwheat (POLCO); conditions: 20-22 d
From the text: as §1, §2, §3, §4, §5

[4] = tested on: Brassica napus (spring rape); experiment: Greenhouse postemergence herbicidal effect, spring rape (BRSNN); conditions: 20-22 d
From the text: as §1, §2, §3, §4, §5

[5] = tested on: Abutilon theophrasti (velvetleaf); experiment: Greenhouse postemergence herbicidal effect, velvetleaf (ABUTH); conditions: Example 4, 20-22 d
From the text: as §1, §2
Emulsifiable concentrates of each of each pyridine carboxylate herbicide (Compound A or Compound B) were prepared at 100 grams acid equivalent per liter (g ae/L). The emulsifiable concentrates also included a safener, cloquintocet-mexyl, at 120 grams active ingredient per liter (g ai/L). […]
as §5

[6] = tested on: Viola tricolor (wild pansy); experiment: Greenhouse postemergence herbicidal effect, wild pansy (VIOTR); conditions: Example 4, 20-22 d
From the text: as §1, §2, §3, §4, §5

[7] = tested on: Cirsium arvense (Canadian thistle); experiment: Greenhouse postemergence herbicidal effect, Canadian thistle (CIRAR); conditions: 20-22 d
From the text: as §1, §2, §3, §4, §5

Kochia scoparia (kochia) = experiment: Greenhouse postemergence herbicidal effect, kochia (KCHSC); conditions: 20-22 d
From the text: as §1, §2, §3, §4, §5

[8] = Example 3, Compound B 7.5 g ae/ha alone
[9] = Example 3, Compound B 10 g ae/ha alone
[10] = Example 4, Compound B 7.5 g ae/ha alone
[11] = Example 4, Compound B 10 g ae/ha alone

C#CCOC(=O)c1nc(-c2ccc3cc[nH]c3c2F)c(F)c(N)c1Cl [Compound B, propargyl 4-amino-3-chloro-5-fluoro-6-(7-fluoro-1H-indol-6-yl)pyridine-2-carboxylate]
% visual injury, Obs [1, 8]: 70%
% visual injury, Obs [1, 9]: 55%
% visual injury, Obs [1, 10]: 70%
% visual injury, Obs [1, 11]: 55%
% visual injury, Obs [2, 8]: 85%
% visual injury, Obs [2, 9]: 90%
% visual injury, Obs [2, 10]: 85%
% visual injury, Obs [2, 11]: 90%
% visual injury, Obs [3, 8]: 73%
% visual injury, Obs [3, 9]: 80%
% visual injury, Obs [3, 10]: 73%
% visual injury, Obs [3, 11]: 80%
% visual injury, Obs [4, 8]: 68%
% visual injury, Obs [4, 9]: 85%
% visual injury, Obs [4, 10]: 68%
% visual injury, Obs [4, 11]: 85%
% visual injury, Obs ([5]; Compound B 7.5 g ae/ha alone): 68%
% visual injury, Obs ([5]; Compound B 10 g ae/ha alone): 68%
% visual injury, Obs ([6]; Compound B 7.5 g ae/ha alone): 10%
% visual injury, Obs ([6]; Compound B 10 g ae/ha alone): 40%
% visual injury, Obs [7, 8]: 45%
% visual injury, Obs [7, 9]: 45%
% visual injury, Obs [7, 10]: 45%
% visual injury, Obs [7, 11]: 45%
% visual injury, Obs (Kochia scoparia (kochia); [8]): 68%
% visual injury, Obs (Kochia scoparia (kochia); [9]): 80%
% visual injury, Obs (Kochia scoparia (kochia); [10]): 68%
% visual injury, Obs (Kochia scoparia (kochia); [11]): 80%
